Assay results reported in US20200369626A1 (Washington University, priority 2019, published 2020).
Values joined by “and” are separate entries in the source; they are usually repeats but may differ in a detail not shown here. Identical values can stand only once. Like-named read-outs stand apart in the source and are kept apart here.

Tests used:
[1] = system: Experimental autoimmune encephalomyelitis (EAE); assay: EAE clinical score in immunized mice, osmotic pump treatment; type: in vivo, female SJL/J mice; conditions: from day 9 postimmunization
[2] = biological target: T1, S1PR2 (Homo sapiens, UniProt O95136); assay: competitive [^32P]S1P binding assay on cell membranes, S1PR2
T1 construct: purchased
Method: The test compounds were dissolved in DMSO and diluted into test samples with increasing concentrations with assay buffer. Commercial cell membranes expressing recombinant human S1PR were diluted with assay buffer to make a 20-40 μg/mL of solution. […] The plate was incubated for 60 min at room temperature with shaking and terminated by collecting the membranes onto 96-well glass fiber (GF/B) filtration plates (Millipore, Billerica, Mass.). Each filter was washed with 200 μL of assay buffer for a total of five washes. […] The IC50 values were fitted from GraphPad Prism 6 using one site Nonlinear Regression.

[3] = biological target: T2, S1PR5 (Homo sapiens, UniProt Q9H228); assay: competitive [^32P]S1P binding assay on cell membranes, S1PR5
T2 construct: purchased

[4] = biological target: T3, S1PR1 (Homo sapiens, UniProt P21453); assay: competitive [^32P]S1P binding assay on cell membranes, S1PR1
T3 construct: purchased
Method: (§1) The test compounds were dissolved in DMSO and diluted into test samples with increasing concentrations with assay buffer. Commercial cell membranes expressing recombinant human S1PR were diluted with assay buffer to make a 20-40 μg/mL of solution. […] The plate was incubated for 60 min at room temperature with shaking and terminated by collecting the membranes onto 96-well glass fiber (GF/B) filtration plates (Millipore, Billerica, Mass.). Each filter was washed with 200 μL of assay buffer for a total of five washes. The filter bound radionuclide was measured by a Beckman LS 3801 scintillation counter using Cherenkov counting. The IC50 values were fitted from GraphPad Prism 6 using one site Nonlinear Regression.

[5] = biological target: T4, S1PR4 (Homo sapiens, UniProt O95977); assay: competitive [^32P]S1P binding assay on cell membranes, S1PR4
T4 construct: purchased
T4 sequence (O95977 1-384): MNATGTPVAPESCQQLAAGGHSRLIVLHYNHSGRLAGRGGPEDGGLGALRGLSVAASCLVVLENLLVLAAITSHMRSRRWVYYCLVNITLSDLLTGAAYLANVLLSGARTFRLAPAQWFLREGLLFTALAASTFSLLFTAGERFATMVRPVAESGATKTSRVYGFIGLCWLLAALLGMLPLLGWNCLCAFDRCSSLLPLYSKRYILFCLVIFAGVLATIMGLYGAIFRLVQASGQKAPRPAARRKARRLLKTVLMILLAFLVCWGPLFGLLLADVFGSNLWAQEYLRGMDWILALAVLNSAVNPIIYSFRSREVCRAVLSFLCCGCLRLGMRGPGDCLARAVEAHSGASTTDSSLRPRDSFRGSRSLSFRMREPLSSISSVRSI
Method: as §1

[6] = biological target: T5, S1PR3 (Homo sapiens, UniProt Q99500); assay: competitive [^32P]S1P binding assay on cell membranes, S1PR3
T5 construct: purchased
Method: as §1

[7] = biological target: T6, Human recombinant sphingosine-1-phosphate receptor 2 (Homo sapiens, UniProt O95136); assay: competitive binding assay using [^125I]34 as radioligand; conditions: S1PR2, radioligand [^125I]34; read-out: [^125I]34 competition assay IC50
Method: Then, 50 μL of different concentrations (0.01, 0.05, 0.1, 0.5, 1.0, 5.0, 10.0, 50.0, 100, 500, 1000 nM) of each ligand and 50 μL of [^125]34 (6.0 nM) was added to each well. The mixture was incubated for 1 h on a shaker at room temperature and then transferred onto a 96-well glass fiber filtration plates. The unbound activity was filtered and rapidly washed using ice-cold assay buffer (5×200 μL/well). After drying under reduced pressure, the filter bound radionuclide was measured by a Beckman 8000 automated gamma counter. The binding potency (IC50) was calculated using GraphPad Prism.

[8] = biodistribution study of [^11C]2c in EAE and control mice; type: in vivo, female SJL mice; conditions: for tissue uptake: female, SJL, mouse, brain, other: injection
Method: A biodistribution study was conducted in female SJL EAE mice and control mice (at 9 weeks, n=4 for each group) to determine the tissue accumulation of the radiotracer post-injection of the dose.

[9] = ex vivo biodistribution study of [^125I]34 in Wistar rats
Method: A pilot biodistribution study was carried out in a small number of rats at early time points post-injection in order to minimize the amount of mixed (radioactive and biological) waste generated by in vivo work. […] Control and streptozotocin-treated Wistar rats were used 10 days after treatment for the preliminary pilot acute ex vivo biodistribution study described below.
As described above, adult male Wistar rats from Charles River were used for a pilot study to evaluate the distribution of [^125I]34 in normal rats at 5 and 30 min post injection and in acute streptozotocin-induced diabetic rats 30 min post-injection (n=4 for each group). The acute streptozotocin-induced diabetic rats were treated 10 days before the study as described above. […] The concentrated solution of [^125I]34 was diluted to ˜0.037 MBq/100 μL which was formulated for injection in 10% ethanol in 5% polyoxyethylated 12-hydroxystearic acid (Kolliphor® HS 15, Millipore Sigma, Billerica, Mass.) and normal saline solution, in order to ensure that the radioactivity was solubilized. Rats were injected via the lateral tail vein under 2-3% isoflurane/oxygen anesthesia, then allowed to recover until euthanized under isoflurane/oxygen anesthesia at the appropriate time point post-injection. Tissues including blood, heart, lung, liver, kidney, muscle, fat, pancreas, spleen, kidney, liver, thyroid, thymus, brain, and small intestines were collected, weighed, and counted in a Beckman Gamma 8000 counter, and counts were corrected for background and decay corrected. Tracer uptake in tissues and organs was calculated as percent injected dose per gram of tissue (% ID/g).

[10] = biological target: T6, Human recombinant sphingosine-1-phosphate receptor 2; assay: biochemical; type: binding
Method: Then, a 50 μL aliquot of increasing concentrations of [^125I]34 (0.2, 0.5, 1.0, 2.0, 4.0, 6.0, 8.0, 10.0, 16.0, and 20.0 nM) was added to each well; each concentration of [^125I]34 was calculated from the radioactivity and specific activity. […] The mixture was incubated at room temperature for 1 h on a shaker and then transferred onto 96-well glass fiber filtration plates. The unbound activity was filtered and rapidly washed away using 200 μL/well of ice-cold assay buffer for 5 times. After drying under the vacuum, the filter bound radionuclide was measured by a Beckman 8000 automated gamma counter. Data analysis was accomplished using GraphPad Prism (GraphPadSoftware, Inc., San Diego, Calif.). The specific binding was calculated by subtracting the non-specific binding from the total binding. The binding assay data were curve-fit to a one-site binding equation to generate the dissociation constant (Kd) of the [^125I]34.

[11] = biological target: T7, sphingosine-1-phosphate receptor 2 in kidney sections (Rattus norvegicus, UniProt P47752); assay: in vitro autoradiography of [^125I]34 on rat kidney sections; type: binding, Sprague Dawley rats
T7 construct: from tissue; host or cells: kidney of male Sprague Dawley rats (control and STZ-induced diabetic)
Method: To check that changes of S1PR2 expression can be detected using [^125I]34 in the STZ induced diabetes rats, in vitro autoradiography studies of [^125]34 were performed.
Male Sprague Dawley (SD) rats (8 weeks old,) received streptozotocin (STZ) via tail vein injections at a dose of 55 mg/kg in 50 mM sodium citrate buffer 12 weeks prior to euthanasia and tissue harvesting. Body weight and blood glucose levels were measured weekly in control and treated animals, where elevated blood glucose was indicative of chronic diabetes (see FIG. 5a). After 12 weeks, the rats were euthanized and one kidney was removed, snap-frozen, and sectioned (14 microns) with a Leica cryostat.
The autoradiography experiment was performed by incubating frozen cross sections of rat kidney tissue and 1.85 KBq/slide of [^125I]34 in 500 μL of binding buffer (50 mM HEPES-Na pH 7.5, 5 mM MgCl2, and 1 mM CaCl2, 0.5% fatty acid-free bovine serum albumin) to check the uptake of the radioactivity. Blocking studies of radiotracer were performed by incubating the above solution with 10 μM of JTE-013, a S1PR2 specific inhibitor. After incubation for 60 minutes at room temperature, the kidney sections were washed 2 minutes each using the following buffers sequentially: 1×TBST, 15% ethanol in 1×TBST, 30% ethanol in 1×TBST, 1×TBST (1×TBST buffer: 20 mM of Tris, 150 mM of NaCl, 0.1% of Tween 20). Then, the section slides were placed into a cassette and exposed to a phosphor sensor sheet for 24 hours. Autoradiography signal was visualized by phosphor-imaging of FLA7000. Autoradiography signal on the renal tissues (cortex and medulla, not including the renal papilla) was measured and quantified with Multi Gouge program. The data was background-corrected and expressed as photo-stimulated luminescence signals per square millimeter (PSL/mm^2) as shown in FIG. 5B. For statistical comparison, the student t-test (unpaired) was applied using MS Excel and p<0.05 was considered statistically significant (see FIG. 5C.)

T1 sequence (O95136 whole entry): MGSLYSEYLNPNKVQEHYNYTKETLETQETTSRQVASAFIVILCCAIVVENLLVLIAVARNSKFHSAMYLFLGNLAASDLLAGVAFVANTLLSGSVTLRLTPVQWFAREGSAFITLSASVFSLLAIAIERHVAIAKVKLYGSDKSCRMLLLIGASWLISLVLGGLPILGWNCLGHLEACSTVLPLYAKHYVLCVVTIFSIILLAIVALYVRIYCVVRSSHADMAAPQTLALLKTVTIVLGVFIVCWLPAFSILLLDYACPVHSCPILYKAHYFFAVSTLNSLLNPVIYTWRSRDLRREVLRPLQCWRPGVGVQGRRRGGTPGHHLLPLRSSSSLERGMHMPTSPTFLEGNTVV
T7 sequence (P47752 whole entry): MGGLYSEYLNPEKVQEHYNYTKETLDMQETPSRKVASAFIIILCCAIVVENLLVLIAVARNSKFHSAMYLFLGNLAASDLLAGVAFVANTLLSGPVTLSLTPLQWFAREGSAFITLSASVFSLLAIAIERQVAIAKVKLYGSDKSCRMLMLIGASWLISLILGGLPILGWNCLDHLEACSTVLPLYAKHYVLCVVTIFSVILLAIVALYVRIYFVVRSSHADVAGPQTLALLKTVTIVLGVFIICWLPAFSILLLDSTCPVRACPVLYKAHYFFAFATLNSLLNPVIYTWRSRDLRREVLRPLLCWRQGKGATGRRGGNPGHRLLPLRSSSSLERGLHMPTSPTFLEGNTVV
T6 sequence (O95136 whole entry): as the sequence (O95136 whole entry) above
T5 sequence (Q99500 whole entry): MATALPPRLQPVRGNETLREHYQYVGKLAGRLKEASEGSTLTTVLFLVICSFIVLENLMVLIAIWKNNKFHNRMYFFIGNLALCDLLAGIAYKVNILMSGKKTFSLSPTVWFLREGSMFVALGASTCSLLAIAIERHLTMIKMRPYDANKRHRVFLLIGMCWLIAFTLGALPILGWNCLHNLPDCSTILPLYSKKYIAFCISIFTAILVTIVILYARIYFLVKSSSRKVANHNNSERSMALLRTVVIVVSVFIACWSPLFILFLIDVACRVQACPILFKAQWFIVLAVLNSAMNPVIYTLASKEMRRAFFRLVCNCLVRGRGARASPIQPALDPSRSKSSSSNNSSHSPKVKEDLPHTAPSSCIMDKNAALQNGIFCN
T3 sequence (P21453 whole entry): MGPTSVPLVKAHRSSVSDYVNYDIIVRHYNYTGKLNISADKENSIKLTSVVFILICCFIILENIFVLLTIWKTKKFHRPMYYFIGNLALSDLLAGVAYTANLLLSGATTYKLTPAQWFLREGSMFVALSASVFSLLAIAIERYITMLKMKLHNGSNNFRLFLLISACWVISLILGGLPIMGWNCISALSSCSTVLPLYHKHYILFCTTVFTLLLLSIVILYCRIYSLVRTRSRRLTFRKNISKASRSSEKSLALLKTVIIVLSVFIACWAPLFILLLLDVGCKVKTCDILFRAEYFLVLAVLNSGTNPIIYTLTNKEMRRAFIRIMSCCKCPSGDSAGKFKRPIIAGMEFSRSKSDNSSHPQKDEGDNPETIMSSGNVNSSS
T2 sequence (Q9H228 whole entry): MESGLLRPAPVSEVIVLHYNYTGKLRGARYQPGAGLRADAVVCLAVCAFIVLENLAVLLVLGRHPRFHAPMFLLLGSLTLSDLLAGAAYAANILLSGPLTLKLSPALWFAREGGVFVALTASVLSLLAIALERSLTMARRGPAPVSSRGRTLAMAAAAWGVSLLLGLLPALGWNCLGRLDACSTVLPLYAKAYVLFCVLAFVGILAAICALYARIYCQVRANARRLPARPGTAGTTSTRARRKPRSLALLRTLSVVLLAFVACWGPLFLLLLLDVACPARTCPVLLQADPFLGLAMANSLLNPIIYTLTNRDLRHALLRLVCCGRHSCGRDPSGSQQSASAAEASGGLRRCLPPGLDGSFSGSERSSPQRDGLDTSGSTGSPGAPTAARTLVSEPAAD

With `COc1ccc(NC(=O)Cn2c(=O)c3ccccc3n(CC(=O)Nc3cc(Cl)c(OC)cc3OC)c2=O)cc1` [Compound 2c] the “EAE disease course (clinical score)” value ([1]; 1 mg/kg, p<0.0002) was “significant improvement of EAE disease course”, the “EAE disease course (clinical score)” value ([1]; 5 mg/kg, p<0.0001) was “significant improvement of EAE disease course” and the IC50 ([2]; [^32P]S1P competition, read-out: IC50 value, S1PR2 binding) was 5.7 ± 0.5 nM.
Work on `CC(C)CC1(O)CCN(C(=O)Nc2cc(Oc3ccc(F)cc3)cc(Sc3ccc(S(C)(=O)=O)cc3)c2)CC1` [Compound 28g, N-(3-(4-Fluorophenoxy)-5-((4-(methylsulfonyl)phenyl)-thio)phenyl)-4-hydroxy-4-isobutylpiperidine-1-carboxamide] yielded a melting point of 79 to 81 °C, an IC50 ([2]; [^32P]S1P competition, Table 2, read-out: IC50 S1PR2) of 38.5 ± 6.3 nM and an IC50 [3] greater than 1000 nM. The IC50 [4] was greater than 1000 nM, the IC50 [5] was greater than 1000 nM and the IC50 [6] was greater than 1000 nM.
`COc1ccc(NC(=O)Cn2c(=O)c3ccccc3n(CC(=O)Nc3cc(I)c(OC)cc3OC)c2=O)cc1` [Compound 34, N-(5-iodo-2,4-dimethoxyphenyl)-2-(3-(2-((4-methoxyphenyl)amino)-2-oxoethyl)-2,4-dioxo-3,4-dihydroquinazolin-1(2H)-yl)acetamide] gave an IC50 ([2]; read-out: [^32P]S1P competition assay IC50, S1PR2, radioligand [^32P]S1P) of 2.8 nM and an IC50 [7] of 4.4 ± 0.2 nM.
In the case of `COc1ccc(NC(=O)Cn2c(=O)c3ccccc3n(CC(=O)Nc3cc(Cl)c(OC)cc3OC)c2=O)cc1` [[^11C]2c], the “uptake in brain, blood, heart, lung, and pancreas” value ([8]; EAE mice versus control) is reported as “increased uptake”, the tissue uptake ([8]; EAE mice) is reported as 0.699 %ID/g and the tissue uptake ([8]; control mice) is reported as 0.452 %ID/g.
With `COc1ccc(NC(=O)Cn2c(=O)c3ccccc3n(CC(=O)Nc3cc([125I])c(OC)cc3OC)c2=O)cc1` [[^125I]34] the “Uptake Blood” value ([9]; 5 min control) was 0.19 % ID/g and 0.19 ± 0.05 % ID/g, the “Uptake Blood” value ([9]; 30 min acute diabetic) was 0.08 ± 0.05 % ID/g and the “Uptake Blood” value ([9]; 30 min control) was 0.08 ± 0.02 % ID/g. For the same compound, the “Uptake Brain” value ([9]; 5 min control) was 0.01 % ID/g and 0.01 ± 0.00 % ID/g, the “Uptake Brain” value ([9]; 30 min acute diabetic) was 0.01 ± 0.00 % ID/g and the “Uptake Brain” value ([9]; 30 min control) was 0.01 ± 0.00 % ID/g. The “Uptake Fat” value ([9]; 5 min control) was 0.07 ± 0.02 % ID/g, the “Uptake Fat” value ([9]; 30 min acute diabetic) was 0.11 ± 0.04 % ID/g and the “Uptake Fat” value ([9]; 30 min control) was 0.09 ± 0.01 % ID/g. For the same compound, the “Uptake Heart” value ([9]; 5 min control) was 0.39 % ID/g and 0.39 ± .08 % ID/g, the “Uptake Heart” value ([9]; 30 min acute diabetic) was 0.12 ± 0.06 % ID/g and the “Uptake Heart” value ([9]; 30 min control) was 0.14 ± 0.02 % ID/g. For the same compound, the “Uptake Kidney” value ([9]; 5 min control) was 0.58 % ID/g and 0.58 ± 0.02 % ID/g, the “Uptake Kidney” value ([9]; 30 min acute diabetic) was 0.15 ± 0.06 % ID/g and the “Uptake Kidney” value ([9]; 30 min control) was 0.15 ± 0.02 % ID/g. The “Uptake Liver” value ([9]; 5 min control) was 2.20 % ID/g and 2.20 ± 0.32 % ID/g, the “Uptake Liver” value ([9]; 30 min acute diabetic) was 0.36 ± 0.14 % ID/g and the “Uptake Liver” value ([9]; 30 min control) was 0.36 ± 0.07 % ID/g. For the same compound, the “Uptake Lung” value ([9]; 5 min control) was 0.64 % ID/g and 0.64 ± 0.01 % ID/g, the “Uptake Lung” value ([9]; 30 min acute diabetic) was 0.20 ± 0.09 % ID/g and the “Uptake Lung” value ([9]; 30 min control) was 0.22 ± 0.04 % ID/g. The “Uptake Muscle” value ([9]; 5 min control) was 0.12 ± 0.01 % ID/g, the “Uptake Muscle” value ([9]; 30 min acute diabetic) was 0.06 ± 0.02 % ID/g and the “Uptake Muscle” value ([9]; 30 min control) was 0.08 ± 0.01 % ID/g. For the same compound, the “Uptake Pancreas” value ([9]; 5 min control) was 0.40 ± 0.04 % ID/g, the “Uptake Pancreas” value ([9]; 30 min acute diabetic) was 0.12 ± 0.04 % ID/g and the “Uptake Pancreas” value ([9]; 30 min control) was 0.14 ± 0.01 % ID/g. The “Uptake Small intestines” value ([9]; 5 min control) was 1.09 ± 0.23 % ID/g, the “Uptake Small intestines” value ([9]; 30 min acute diabetic) was 2.59 ± 0.58 % ID/g and the “Uptake Small intestines” value ([9]; 30 min control) was 5.32 ± 0.27 % ID/g. For the same compound, the “Uptake Spleen” value ([9]; 5 min control) was 0.29 ± 0.06 % ID/g, the “Uptake Spleen” value ([9]; 30 min acute diabetic) was 0.05 ± 0.02 % ID/g and the “Uptake Spleen” value ([9]; 30 min control) was 0.06 ± 0.01 % ID/g. The “Uptake Thymus” value ([9]; 5 min control) was 0.10 ± 0.01 % ID/g, the “Uptake Thymus” value ([9]; 30 min acute diabetic) was 0.08 ± 0.03 % ID/g and the “Uptake Thymus” value ([9]; 30 min control) was 0.10 ± 0.02 % ID/g. The “Uptake Thyroid” value ([9]; 5 min control) was 0.32 ± 0.11 % ID/g, the “Uptake Thyroid” value ([9]; 30 min acute diabetic) was 0.25 ± 0.06 % ID/g and the “Uptake Thyroid” value ([9]; 30 min control) was 0.53 ± 0.09 % ID/g. The “in vivo metabolic stability” value ([9]; inferred from low activity in the thyroid) was “metabolically stable”, the “crossing of the blood brain barrier” value ([9]; inferred from very low brain uptake in rats) was “does not cross the blood brain barrier” and the Kd [10] was 4.31 ± 0.39 nM. For the same compound, the “blocking of binding to kidney tissue” value ([11]; 10 μM of JTE-013, both groups) was “could be blocked”, the “kidney radioactivity (autoradiography signal)” value ([11]; chronic diabetic (STZ) rats, n=5) was 103.5 PSL/mm^2 and the “increase of binding to kidney of diabetic rats compared to control rats” value ([11]; chronic diabetic vs control) was 44%. The “kidney radioactivity (autoradiography signal)” value ([11]; control rats, n=4) was 72.0 PSL/mm^2.
